Earlier results in patent publication US20100120780A1, “TREATMENTS FOR PREMATURE EJACULATION IN HUMANS” (priority 2007, published 2010).
Counter-ions that a name gives are not always drawn.

Key:
μ-opiate receptors = μ-opiate receptors (Homo sapiens, UniProt P35372)
[1] = for accumulation: multiple dose treatment with tramadol
[2] = oral administration, Viagra formulation
[3] = target: phosphodiesterase type 5 (PDE5) (Homo sapiens, UniProt O76074); conditions: PDE5 vs PDE6
[4] = rats
[5] = 0.2M sodium chloride

Chain of μ-opiate receptors (P35372 whole entry): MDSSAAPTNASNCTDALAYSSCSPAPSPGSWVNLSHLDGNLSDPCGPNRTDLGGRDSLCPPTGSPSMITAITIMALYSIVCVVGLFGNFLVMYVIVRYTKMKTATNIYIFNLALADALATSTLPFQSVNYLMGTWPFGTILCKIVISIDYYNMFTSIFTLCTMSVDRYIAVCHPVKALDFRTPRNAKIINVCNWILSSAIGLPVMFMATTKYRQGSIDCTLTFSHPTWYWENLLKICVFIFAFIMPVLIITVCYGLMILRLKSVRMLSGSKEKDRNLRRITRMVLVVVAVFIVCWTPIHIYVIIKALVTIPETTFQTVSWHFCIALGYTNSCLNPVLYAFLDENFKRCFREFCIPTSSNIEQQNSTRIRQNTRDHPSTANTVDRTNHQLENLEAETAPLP

Question: What does the source list for `COc1cccc(C2(O)CCCCC2CN(C)C)c1` (racemic) [tramadol, (+/−)-trans (RR,SS)-2-[(di-methylamino)methyl]-1-(3-methoxyphenyl)cyclohexanol]?
Answer: duration of the analgesic effect (single oral dose of tramadol 100 mg): about 6 hours; affinity for μ-opiate receptors, fold less than codeine (μ-opiate receptors; relative to codeine): 10 fold; affinity for μ-opiate receptors, fold less than d-propoxyphene (μ-opiate receptors; relative to d-propoxyphene): 100 fold; affinity for μ-opiate receptors compared to dextromethorphan (μ-opiate receptors; relative to dextromethorphan): equivalent; affinity for μ-opiate receptors, fold less than morphine (μ-opiate receptors; relative to morphine): 6,000 fold; accumulation [1]: approximately 2 fold; time to peak serum concentrations ([1]; oral administration): ≤ 2 h

Question: What does the source list for `CN(C)C[C@H]1CCCC[C@]1(O)c1cccc(O)c1` [M1 derivative, O-desmethyltramadol]?
Answer: analgesic potency relative to the parent drug (relative to tramadol): at least twice; accumulation [1]: approximately 2 fold

Question: For `CCCc1nn(C)c2c(=O)[nH]c(-c3cc(S(=O)(=O)N4CCN(C)CC4)ccc3OCC)nc12` [sildenafil, 1-[[3-(6,7-dihydro-1-methyl-7-oxo-3-propyl-1H-pyrazolo[4,3-d]pyrimidin-5-yl)-4-ethoxyphenyl]sulfonyl]-4-methyl piperazine], which absolute bioavailability [2] is on record?
Answer: The absolute bioavailability was “about 40%”.

Question: What about the “potency for PDE5 compared to PDE6” value [3] of the same compound?
Answer: The value was “about 10 fold”.

Question: For `COc1cc(CNC(=O)CCCCC=CC(C)C)ccc1O` [capsaicin, 8-methyl-N-vanillyl-6-nonenamide], which “time to distribution to the brain, spinal cord, liver and blood” value ([4]; intravenous administration) is on record?
Answer: Its value is at most 20 min.

Question: What about the “absorption in the jejunum” value ([4]; oral dosing, after 3 hours) of the same compound?
Answer: The value was 85%.

Question: For `COc1ccc(C(CN(C)C)C2(O)CCCCC2)cc1` (racemic) [Venlafaxine hydrochloride, (R/S)-1-[2-(dimethylamino)-1-(4-methoxyphenyl)ethyl]cyclohexanol], which “octanol:water partition coefficient” value [5] is on record?
Answer: Its value is 0.43.
